In US11969428B2, “Methods and pharmaceutical compositions for treating lymphoid malignancy” (priority 2011, dated 2024):

Tests used:
Test in all cases: Ambit KinomeScan screening
Assay type in all cases: binding
Settings in all cases: CAL-130 10 μM
[1] = target: T1, OSR1 (Homo sapiens, UniProt O95747)
T1 construct: purchased Ambit (KinomeScan screening service)
Procedure, shortened: (§1)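 Read-out is % of control binding: the tagged kinase retained on an immobilized bait ligand when CAL-130 is present at 10 μM. A lower percentage reflects stronger compound interaction, and anything over 35% counts as no hit.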

[2] = target: T2, SIK (Homo sapiens, UniProt P57059)
T2 construct: tag, kind not specified; purchased Ambit (KinomeScan screening service)
Procedure, shortened: as §1

[3] = target: T3, DAPK3 (Homo sapiens, UniProt O43293)
T3 construct: unspecified tag ("tagged kinases"); purchased Ambit (KinomeScan screening service)
Procedure, shortened: as §1

[4] = target: T4, RPS6KA4 (Homo sapiens, UniProt O75676)
T4 construct: tag, kind not specified; purchased Ambit (KinomeScan screening service)
Procedure, shortened: as §1

[5] = target: T5, MARK3 (Homo sapiens, UniProt P27448)
T5 construct: purchased Ambit (KinomeScan screening)
Procedure, shortened: as §1

[6] = target: T6, JAK3(JH1domain) (Homo sapiens, UniProt P52333)
T6 construct: JAK3(JH1domain); purchased Ambit (KinomeScan screening)
Procedure, shortened: as §1

[7] = target: T7, MARK1 (Homo sapiens, UniProt Q9P0L2)
T7 construct: Ambit (KinomeScan screening)
Procedure, shortened: as §1

[8] = target: T8, RIOK2 (Homo sapiens, UniProt Q9BVS4)
T8 construct: unspecified tag (tagged kinase); purchased Ambit (KinomeScan screening)
Procedure, shortened: as §1

[9] = target: T9, BMPR2 (Homo sapiens, UniProt Q13873)
T9 construct: unspecified tag ("tagged kinases"); purchased Ambit (KinomeScan screening)
Procedure, shortened: as §1

[10] = target: T10, TNIK (Homo sapiens, UniProt Q9UKE5)
T10 construct: unspecified tag (tagged kinase); purchased Ambit (KinomeScan screening)
Procedure, shortened: as §1

[11] = target: T11, NEK7 (Homo sapiens, UniProt Q8TDX7)
T11 construct: purchased Ambit (KinomeScan screening service)
Procedure, shortened: as §1

[12] = target: T12, PAK6 (Homo sapiens, UniProt Q9NQU5)
T12 construct: tag (kind not specified); purchased Ambit (KinomeScan screening service)
Procedure, shortened: as §1

[13] = target: T13, MET(M1250T) (Homo sapiens, UniProt P08581, M1250T)
T13 construct: purchased Ambit (KinomeScan screening)
Procedure, shortened: as §1

[14] = target: T14, GCN2(S808G) (Homo sapiens, UniProt Q9P2K8, S808G)
T14 construct: unspecified tag ('tagged kinases'); purchased Ambit (KinomeScan screening service)
Procedure, shortened: as §1

[15] = target: T15, FRK (Homo sapiens, UniProt P42685)
T15 construct: unspecified tag ('tagged kinases'); purchased Ambit (KinomeScan screening service)
Procedure, shortened: as §1

[16] = target: T16, KIT(V559D, T670I) (Homo sapiens, UniProt P10721, T670I/V559D)
T16 construct: unspecified tag ('tagged kinases'); purchased Ambit (KinomeScan screening)
Procedure, shortened: as §1

[17] = target: T17, PRKCQ (Homo sapiens, UniProt Q04759)
T17 construct: purchased Ambit (KinomeScan screening service)
Procedure, shortened: as §1

[18] = target: T18, PIP5K2B (Homo sapiens, UniProt P78356)
T18 construct: unspecified tag; purchased Ambit (KinomeScan screening panel)
Procedure, shortened: as §1

[19] = target: T19, MKNK2 (Homo sapiens, UniProt Q9HBH9)
T19 construct: unspecified tag ('tagged kinases'); purchased Ambit (KinomeScan screening)
Procedure, shortened: as §1

[20] = target: T20, FGFR4 (Homo sapiens, UniProt P22455)
T20 construct: unspecified tag; purchased Ambit (KinomeScan screening service)
Procedure, shortened: as §1

[21] = target: T21, PRKCH (Homo sapiens, UniProt P24723)
T21 construct: purchased Ambit (KinomeScan screening service)
Procedure, shortened: as §1

[22] = target: T22, AKT3 (Homo sapiens, UniProt Q9Y243)
T22 construct: purchased Ambit (KinomeScan screening)
Procedure, shortened: as §1

[23] = target: T23, ERN1 (Homo sapiens, UniProt O75460)
T23 construct: unspecified tag ("tagged kinases"); purchased Ambit (KinomeScan screening service)
Procedure, shortened: as §1

[24] = target: T24, MRCKA (Homo sapiens, UniProt Q5VT25)
T24 construct: unspecified tag ('tagged kinases'); purchased Ambit (KinomeScan screening)
Procedure, shortened: as §1

[25] = target: T25, LATS2 (Homo sapiens, UniProt Q9NRM7)
T25 construct: unspecified tag ('tagged kinases'); purchased Ambit (KinomeScan screening service)
Procedure, shortened: as §1

[26] = target: T26, TRKB (Homo sapiens, UniProt Q16620)
T26 construct: tag, kind not specified; purchased Ambit (KinomeScan screening service)
Procedure, shortened: as §1

[27] = target: T27, NLK (Homo sapiens, UniProt Q9UBE8)
T27 construct: purchased Ambit (KinomeScan screening service)
Procedure, shortened: as §1

[28] = target: T28, MAP3K3 (Homo sapiens, UniProt Q99759)
T28 construct: Ambit (KinomeScan screening)
Procedure, shortened: as §1

[29] = target: T29, PYK2 (Homo sapiens, UniProt Q14289)
T29 construct: tag (kind not specified); purchased Ambit (KinomeScan screening service)
Procedure, shortened: as §1

[30] = target: T30, PCTK2 (Homo sapiens, UniProt Q00537)
T30 construct: unspecified tag ('tagged kinases'); purchased Ambit (KinomeScan screening)
Procedure, shortened: as §1

[31] = target: T31, GRK7 (Homo sapiens, UniProt Q8WTQ7)
T31 construct: unspecified tag ('tagged kinases'); purchased Ambit (KinomeScan screening service)
Procedure, shortened: as §1

[32] = target: T32, BRAF(V600E) (Homo sapiens, UniProt P15056, V600E)
T32 construct: unspecified tag ("tagged kinases"); purchased Ambit (KinomeScan screening)
Procedure, shortened: as §1

[33] = target: T33, CSK (Homo sapiens, UniProt P41240)
T33 construct: purchased Ambit (KinomeScan screening service)
Procedure, shortened: as §1

[34] = target: T34, AMPK-α2 (Homo sapiens, UniProt P54646)
T34 construct: purchased Ambit (KinomeScan screening)
Procedure, shortened: as §1

[35] = target: T35, CAMKK2 (Homo sapiens, UniProt Q96RR4)
T35 construct: purchased Ambit (KinomeScan screening)
Procedure, shortened: as §1

[36] = target: T36, CSNK1G2 (Homo sapiens, UniProt P78368)
T36 construct: purchased Ambit (KinomeScan screening service)
Procedure, shortened: as §1

T4 sequence (O75676 whole entry): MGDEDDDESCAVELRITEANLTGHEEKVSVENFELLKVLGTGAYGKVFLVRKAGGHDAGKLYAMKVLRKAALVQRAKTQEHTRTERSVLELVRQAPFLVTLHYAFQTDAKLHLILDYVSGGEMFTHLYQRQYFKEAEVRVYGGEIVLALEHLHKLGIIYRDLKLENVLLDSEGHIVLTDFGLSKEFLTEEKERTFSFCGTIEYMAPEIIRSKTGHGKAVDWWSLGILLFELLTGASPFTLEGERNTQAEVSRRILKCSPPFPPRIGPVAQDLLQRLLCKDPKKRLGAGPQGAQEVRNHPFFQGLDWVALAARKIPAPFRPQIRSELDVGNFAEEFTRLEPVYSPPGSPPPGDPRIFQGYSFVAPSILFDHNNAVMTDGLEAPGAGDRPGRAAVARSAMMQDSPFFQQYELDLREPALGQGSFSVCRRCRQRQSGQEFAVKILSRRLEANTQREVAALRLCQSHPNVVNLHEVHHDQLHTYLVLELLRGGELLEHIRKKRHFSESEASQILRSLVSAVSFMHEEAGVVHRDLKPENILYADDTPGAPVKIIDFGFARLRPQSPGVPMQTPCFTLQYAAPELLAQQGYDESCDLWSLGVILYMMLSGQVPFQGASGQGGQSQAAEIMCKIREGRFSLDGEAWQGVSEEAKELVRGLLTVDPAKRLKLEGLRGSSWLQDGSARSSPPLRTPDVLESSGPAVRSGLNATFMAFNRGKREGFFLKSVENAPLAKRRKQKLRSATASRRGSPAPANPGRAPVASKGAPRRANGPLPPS
T21 sequence (P24723 whole entry): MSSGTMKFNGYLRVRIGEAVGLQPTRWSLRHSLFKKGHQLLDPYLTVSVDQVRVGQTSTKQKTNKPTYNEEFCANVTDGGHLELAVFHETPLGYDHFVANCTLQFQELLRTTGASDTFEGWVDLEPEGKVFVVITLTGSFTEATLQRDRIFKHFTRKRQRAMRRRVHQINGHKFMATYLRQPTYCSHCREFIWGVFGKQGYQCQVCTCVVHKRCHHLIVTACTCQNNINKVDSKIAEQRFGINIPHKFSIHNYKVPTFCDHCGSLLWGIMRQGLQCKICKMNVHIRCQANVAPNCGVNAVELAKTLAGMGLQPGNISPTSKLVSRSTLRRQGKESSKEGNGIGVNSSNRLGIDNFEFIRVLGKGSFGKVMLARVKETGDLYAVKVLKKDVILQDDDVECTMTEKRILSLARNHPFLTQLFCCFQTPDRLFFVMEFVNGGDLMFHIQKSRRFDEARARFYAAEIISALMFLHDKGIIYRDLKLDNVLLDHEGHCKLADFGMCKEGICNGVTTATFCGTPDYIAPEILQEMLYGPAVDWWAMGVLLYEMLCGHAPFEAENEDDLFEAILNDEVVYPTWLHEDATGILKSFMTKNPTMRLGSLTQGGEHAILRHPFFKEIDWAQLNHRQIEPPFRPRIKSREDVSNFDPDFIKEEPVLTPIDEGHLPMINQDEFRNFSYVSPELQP
T16 sequence (P10721 26-976 V559D/T670I): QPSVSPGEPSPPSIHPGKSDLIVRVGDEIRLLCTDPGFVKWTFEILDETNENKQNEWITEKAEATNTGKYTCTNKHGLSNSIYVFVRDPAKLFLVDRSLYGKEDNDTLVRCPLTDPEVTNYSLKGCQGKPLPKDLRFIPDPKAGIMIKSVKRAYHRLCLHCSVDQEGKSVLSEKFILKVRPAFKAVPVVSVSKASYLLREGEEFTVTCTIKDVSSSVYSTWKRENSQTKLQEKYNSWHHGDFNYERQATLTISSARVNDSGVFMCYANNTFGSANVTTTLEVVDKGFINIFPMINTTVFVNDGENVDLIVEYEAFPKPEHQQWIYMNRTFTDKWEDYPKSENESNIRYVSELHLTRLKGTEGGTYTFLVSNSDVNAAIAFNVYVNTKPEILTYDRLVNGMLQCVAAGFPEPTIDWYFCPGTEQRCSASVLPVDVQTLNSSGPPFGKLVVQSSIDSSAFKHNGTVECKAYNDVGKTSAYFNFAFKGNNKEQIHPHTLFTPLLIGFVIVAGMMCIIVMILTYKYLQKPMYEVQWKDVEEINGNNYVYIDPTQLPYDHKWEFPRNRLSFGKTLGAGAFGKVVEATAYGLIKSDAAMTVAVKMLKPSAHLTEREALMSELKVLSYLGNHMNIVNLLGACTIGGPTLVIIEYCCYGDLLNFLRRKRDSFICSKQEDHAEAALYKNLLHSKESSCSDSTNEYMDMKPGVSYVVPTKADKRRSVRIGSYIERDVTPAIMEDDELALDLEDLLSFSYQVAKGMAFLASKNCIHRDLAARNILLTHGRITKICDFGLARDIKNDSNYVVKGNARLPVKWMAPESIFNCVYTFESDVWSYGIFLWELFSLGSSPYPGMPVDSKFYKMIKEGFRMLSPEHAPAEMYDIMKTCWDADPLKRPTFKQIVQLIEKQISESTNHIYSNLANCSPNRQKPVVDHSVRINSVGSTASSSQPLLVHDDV
T27 sequence (Q9UBE8 whole entry): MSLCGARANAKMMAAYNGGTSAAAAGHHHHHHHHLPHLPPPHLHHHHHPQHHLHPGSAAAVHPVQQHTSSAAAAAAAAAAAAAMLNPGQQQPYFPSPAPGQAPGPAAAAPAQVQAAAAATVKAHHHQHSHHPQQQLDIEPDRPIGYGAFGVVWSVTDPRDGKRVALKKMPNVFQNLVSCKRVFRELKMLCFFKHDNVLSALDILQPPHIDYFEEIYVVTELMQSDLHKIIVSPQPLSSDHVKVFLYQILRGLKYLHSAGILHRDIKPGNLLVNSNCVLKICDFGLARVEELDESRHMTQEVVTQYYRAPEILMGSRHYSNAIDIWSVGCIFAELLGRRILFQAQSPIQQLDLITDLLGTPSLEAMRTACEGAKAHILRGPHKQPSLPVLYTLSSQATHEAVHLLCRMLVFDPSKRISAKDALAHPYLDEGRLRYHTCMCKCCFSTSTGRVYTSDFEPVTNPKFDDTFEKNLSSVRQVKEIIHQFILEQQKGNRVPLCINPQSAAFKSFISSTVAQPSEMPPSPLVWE
T23 sequence (O75460 19-977): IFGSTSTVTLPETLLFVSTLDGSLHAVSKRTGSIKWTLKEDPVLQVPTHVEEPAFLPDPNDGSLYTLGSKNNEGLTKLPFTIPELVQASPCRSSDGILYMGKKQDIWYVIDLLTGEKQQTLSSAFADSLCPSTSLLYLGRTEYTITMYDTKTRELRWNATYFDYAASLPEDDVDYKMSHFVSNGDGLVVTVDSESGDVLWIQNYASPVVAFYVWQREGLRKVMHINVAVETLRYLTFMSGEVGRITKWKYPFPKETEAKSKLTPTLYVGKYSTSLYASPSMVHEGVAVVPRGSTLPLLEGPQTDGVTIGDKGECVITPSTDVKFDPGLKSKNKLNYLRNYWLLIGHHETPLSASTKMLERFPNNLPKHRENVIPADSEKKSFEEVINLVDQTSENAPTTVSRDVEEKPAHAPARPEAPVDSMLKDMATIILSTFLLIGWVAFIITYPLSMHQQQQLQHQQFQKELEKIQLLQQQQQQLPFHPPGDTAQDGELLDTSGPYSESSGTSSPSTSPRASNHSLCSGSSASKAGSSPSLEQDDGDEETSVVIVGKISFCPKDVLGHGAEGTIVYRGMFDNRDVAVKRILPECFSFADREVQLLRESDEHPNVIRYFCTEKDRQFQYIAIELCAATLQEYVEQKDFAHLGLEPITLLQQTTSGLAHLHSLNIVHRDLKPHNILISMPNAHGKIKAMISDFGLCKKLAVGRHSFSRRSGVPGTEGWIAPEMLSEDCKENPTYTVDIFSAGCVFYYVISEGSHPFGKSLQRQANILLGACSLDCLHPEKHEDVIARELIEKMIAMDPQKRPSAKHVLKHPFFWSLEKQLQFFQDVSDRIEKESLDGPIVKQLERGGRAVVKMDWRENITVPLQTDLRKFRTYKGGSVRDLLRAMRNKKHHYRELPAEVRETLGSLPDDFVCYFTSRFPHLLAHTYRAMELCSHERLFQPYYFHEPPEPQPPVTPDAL
T25 sequence (Q9NRM7 whole entry): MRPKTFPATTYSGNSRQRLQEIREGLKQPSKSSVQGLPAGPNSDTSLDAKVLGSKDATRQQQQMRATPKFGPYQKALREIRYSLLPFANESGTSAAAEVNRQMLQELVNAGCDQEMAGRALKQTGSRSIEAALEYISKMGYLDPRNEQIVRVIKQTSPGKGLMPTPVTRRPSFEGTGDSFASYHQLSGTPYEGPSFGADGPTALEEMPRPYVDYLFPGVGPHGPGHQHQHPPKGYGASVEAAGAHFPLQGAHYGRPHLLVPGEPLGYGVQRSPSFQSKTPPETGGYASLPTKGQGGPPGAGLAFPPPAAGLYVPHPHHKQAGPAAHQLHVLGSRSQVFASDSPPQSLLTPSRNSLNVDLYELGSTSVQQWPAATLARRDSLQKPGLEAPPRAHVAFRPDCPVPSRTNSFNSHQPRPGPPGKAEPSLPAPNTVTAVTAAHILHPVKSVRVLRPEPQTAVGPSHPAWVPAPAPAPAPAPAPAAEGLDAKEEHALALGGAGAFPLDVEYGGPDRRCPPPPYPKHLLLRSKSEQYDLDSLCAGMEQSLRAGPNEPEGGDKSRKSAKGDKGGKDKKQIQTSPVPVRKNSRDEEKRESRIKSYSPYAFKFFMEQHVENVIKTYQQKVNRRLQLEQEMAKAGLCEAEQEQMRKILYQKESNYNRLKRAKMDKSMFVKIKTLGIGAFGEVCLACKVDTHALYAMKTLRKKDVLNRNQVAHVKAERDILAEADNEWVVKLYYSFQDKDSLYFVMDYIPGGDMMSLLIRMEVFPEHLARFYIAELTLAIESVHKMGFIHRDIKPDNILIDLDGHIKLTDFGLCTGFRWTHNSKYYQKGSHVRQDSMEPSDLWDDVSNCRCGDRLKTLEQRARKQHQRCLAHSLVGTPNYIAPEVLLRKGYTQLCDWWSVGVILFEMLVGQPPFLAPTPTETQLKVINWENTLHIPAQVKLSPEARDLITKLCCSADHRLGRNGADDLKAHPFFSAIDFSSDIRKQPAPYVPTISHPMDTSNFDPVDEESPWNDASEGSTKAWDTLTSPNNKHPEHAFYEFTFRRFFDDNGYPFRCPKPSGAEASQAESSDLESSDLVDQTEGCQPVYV

## Cc1ccccc1-n1c(C(C)Nc2nc(N)nc3nc[nH]c23)nc2cccc(C)c2c1=O (stereo not drawn) [CAL-130]
[1]
  Percent of Control Binding: 100%
[2]
  Percent of Control Binding: 100%
[3]
  Percent of Control Binding: 100%
[4]
  Percent of Control Binding: 100%
[5]
  Percent of Control Binding: 100%
[6]
  Percent of Control Binding: 100%
[7]
  Percent of Control Binding: 100%
[8]
  Percent of Control Binding: 100%
[9]
  Percent of Control Binding: 100%
[10]
  Percent of Control Binding: 100%
[11]
  Percent of Control Binding: 100%
[12]
  Percent of Control Binding: 100%
[13]
  Percent of Control Binding: 100%
[14]
  Percent of Control Binding: 100%
[15]
  Percent of Control Binding: 100%
[16]
  Percent of Control Binding: 100%
[17]
  Percent of Control Binding: 100%
[18]
  Percent of Control Binding: 100%
[19]
  Percent of Control Binding: 16%
[20]
  Percent of Control Binding: 100%
[21]
  Percent of Control Binding: 100%
[22]
  Percent of Control Binding: 100%
[23]
  Percent of Control Binding: 100%
[24]
  Percent of Control Binding: 100%
[25]
  Percent of Control Binding: 100%
[26]
  Percent of Control Binding: 100%
[27]
  Percent of Control Binding: 100%
[28]
  Percent of Control Binding: 100%
[29]
  Percent of Control Binding: 100%
[30]
  Percent of Control Binding: 100%
[31]
  Percent of Control Binding: 100%
[32]
  Percent of Control Binding: 100%
[33]
  Percent of Control Binding: 100%
[34]
  Percent of Control Binding: 100%
[35]
  Percent of Control Binding: 18%
[36]
  Percent of Control Binding: 100%
